Data published in patent US20060223837A1 (priority 2005, published 2006).
pEC50, pIC50, pKi: −log10 of the molar value.

Key:
human VR1 [1] = target: T1, human VR1 (Homo sapiens, UniProt Q8NER1); experiment: Human VR1 functional assay (FLIPR intracellular Ca2+); assay type: cell-based; details: for % Response Relative to EC80 of Capsaicin (12 μM) / Emax at 12 µM / Emax at 6 µM: agonist response; for pIC50: antagonism of capsaicin-induced Ca2+ increase, read-out: h IC50; for Emax at 12 µM: read-out: % Response Relative to EC80 of Capsaicin (12 μM); for Emax at 6 µM: read-out: % Response Relative to EC80 of Capsaicin (6 μM); for inhibition at 1 µM: read-out: h % I (1 μM)
T1 construct: expressed in transfected cells; host or cells: HEK293
T1 sequence (Q8NER1 whole entry): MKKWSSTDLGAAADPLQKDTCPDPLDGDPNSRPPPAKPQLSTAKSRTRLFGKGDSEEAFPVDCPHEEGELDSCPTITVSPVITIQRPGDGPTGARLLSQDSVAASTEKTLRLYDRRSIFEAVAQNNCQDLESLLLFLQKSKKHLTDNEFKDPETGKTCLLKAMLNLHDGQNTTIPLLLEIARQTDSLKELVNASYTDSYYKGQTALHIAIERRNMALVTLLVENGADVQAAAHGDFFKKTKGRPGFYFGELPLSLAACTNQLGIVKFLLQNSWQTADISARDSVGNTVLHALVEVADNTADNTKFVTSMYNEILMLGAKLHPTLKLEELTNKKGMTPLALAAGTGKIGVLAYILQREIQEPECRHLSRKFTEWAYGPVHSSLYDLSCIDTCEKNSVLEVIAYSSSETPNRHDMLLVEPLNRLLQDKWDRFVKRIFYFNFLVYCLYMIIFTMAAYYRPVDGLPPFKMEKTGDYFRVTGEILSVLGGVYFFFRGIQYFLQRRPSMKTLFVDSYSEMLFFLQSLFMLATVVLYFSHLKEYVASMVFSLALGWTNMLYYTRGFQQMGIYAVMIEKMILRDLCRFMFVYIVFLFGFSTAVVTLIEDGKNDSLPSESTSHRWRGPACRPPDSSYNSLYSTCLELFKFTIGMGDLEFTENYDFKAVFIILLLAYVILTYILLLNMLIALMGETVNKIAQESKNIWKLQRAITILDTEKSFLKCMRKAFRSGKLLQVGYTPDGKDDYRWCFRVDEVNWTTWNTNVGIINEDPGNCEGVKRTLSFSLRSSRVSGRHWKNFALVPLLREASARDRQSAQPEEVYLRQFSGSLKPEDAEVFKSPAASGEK
Outline: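 Read-out was Ca2+-dye fluorescence by FLIPR: compounds at varying concentrations were added to dye-loaded human VR1 HEK293 cells and monitored 5 min before capsaicin addition ([…], approx. EC80). Dose-response data, averaged over four wells, gave EC50 or IC50.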

human VR1 [2] = target: T1, human VR1; experiment: Human VR1 [3H]RTX binding assay; details: for h Binding % I (1 μM) / inhibition at 1 µM: inhibition of [3H]RTX binding at 1 μM; for inhibition at 1 µM: read-out: h Binding % I (1 μM); for pKi: [3H]RTX binding, HEK293 membranes
Outline: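 Inhibition of [3H]resiniferatoxin binding measured on HEK293-hVR1 membranes over 60 min at 37 C, pH 7.4 HEPES buffer containing BSA. Pellet radioactivity counted; 200 nM cold RTX gave nonspecific binding. % inhibition computed and Ki derived from duplicate measurements.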

[3] = inhibition of capsaicin response, 5 μM
[4] = inhibition of capsaicin response

| % Response Relative to EC80 of Capsaicin (12 μM) (human VR1 [1]) [%] | h Binding % I (1 μM) (human VR1 [2]) [%] | inhibition at 1 µM (human VR1 [2]) [%] | Emax at 12 µM (human VR1 [1]) [%] | pKi (human VR1 [2]) | other results | Compound |
| --- | --- | --- | --- | --- | --- | --- |
| 58 | 34 |  |  |  |  | CC(C)(C)c1ccc(CCC(=O)Nc2ccc(-c3ncccc3O)cc2)cc1 [Cpd 115] |
|  |  | 1.1 |  |  | pIC50 (human VR1 [1]): 6.42 | CC(C)(C)c1ccc(CCC(=O)Nc2cccc(-c3ncccn3)c2)cc1 [Cpd 116] |
|  |  | 88 | 126 | 7.39 | pEC50 (human VR1 [1]; agonist-induced Ca2+ increase, read-out: h EC50): 7.77 | CC(C)(C)c1ccc(CCC(=O)Nc2ccc(-c3cccc(O)c3)nc2)cc1 [Cpd 129] |
|  | 45 |  |  |  | h % I (5 μM) (human VR1 [1]; [3]): 30% | CC(C)(C)c1ccc(CCC(=O)Nc2ccc(-c3ccccc3O)nc2)cc1 [Cpd 132] |
|  |  | 101 | 95 | 7.96 |  | CC(C)(C)c1ccc(CCC(=O)Nc2ccc(-c3ccc(O)cc3)nc2)cc1 [Cpd 133] |
|  |  | 90 | 79 | 7.51 |  | CC(C)(C)c1ccc(CCC(=O)Nc2ccc(-c3ccc(CO)cc3)nc2)cc1 [Cpd 135] |
|  |  | 84 | 78 | 6.99 |  | CC(C)(C)c1ccc(CCC(=O)Nc2ccc(-c3cccnc3)nc2)cc1 [Cpd 136] |
|  |  | 66 | 96 | 7.03 |  | CC(C)(C)c1ccc(CCC(=O)Nc2ccc(-c3ccncc3)nc2)cc1 [Cpd 137] |
| 113 | 61 |  |  | 6.34 |  | CC(C)(C)c1csc(CCC(=O)Nc2ccc(-c3ccncc3)cc2)c1 [Cpd 138] |
| 78 | 45 |  |  |  |  | O=C(CCc1ccc(C(F)(F)F)cc1)Nc1ccc(-c2cccnc2)cc1 [Cpd 142] |
| 111 | 44 |  |  |  |  | O=C(CCc1ccc(C(F)(F)F)cc1)Nc1ccc(-c2ccncc2)cc1 [Cpd 143] |
| 73 | 1 |  |  |  |  | NC(=O)c1cccc(-c2ccc(NC(=O)CCc3ccc(C(F)(F)F)cc3)cn2)c1 [Cpd 144] |
| 92 | 16 |  |  |  |  | CC(=O)Nc1cccc(-c2ccc(NC(=O)CCc3ccc(C(F)(F)F)cc3)cn2)c1 [Cpd 145] |
|  |  | 62 | 92 | 6.50 |  | O=C(CCc1ccc(C(F)(F)F)cc1)Nc1ccc(-c2cccc(O)c2)nc1 [Cpd 147] |
|  |  | 73 | 74 | 7.01 |  | O=C(CCc1ccc(C(F)(F)F)cc1)Nc1ccc(-c2ccc(O)cc2)nc1 [Cpd 148] |
| 101 | 9 |  |  |  |  | O=C(CCc1ccc(C(F)(F)F)cc1)Nc1ccc(-c2cccc(CO)c2)nc1 [Cpd 149] |
|  |  | 75 | 79 | 6.83 |  | O=C(CCc1ccc(C(F)(F)F)cc1)Nc1ccc(-c2ccc(CO)cc2)nc1 [Cpd 150] |
| 91 | 35 |  |  |  |  | O=C(CCc1ccc(C(F)(F)F)cc1)Nc1ccc(-c2cccnc2)nc1 [Cpd 151] |
| 100 | 37 |  |  |  |  | O=C(CCc1ccc(C(F)(F)F)cc1)Nc1ccc(-c2ccncc2)nc1 [Cpd 152] |
|  | 1 |  |  |  | h % I (5 μM) (human VR1 [1]; [3]): 25% | CC(C)(C)c1ccc(CCC(=O)Nc2ccc(-c3ccncc3)c3ccccc23)cc1 [Cpd 153] |
|  | 1 |  |  |  | h % I (5 μM) (human VR1 [1]; [3]): 12% | O=C(CCc1ccc(C(F)(F)F)cc1)Nc1ccc(-c2ccncc2)c2ccccc12 [Cpd 157] |
|  |  | 101 |  |  | pIC50 (human VR1 [1]): 7.57; inhibition at 5 µM (human VR1 [1]; inhibition of capsaicin response, 5 μM, read-out: h % I (5 μM)): 96% | Cc1cc(NC(=O)CCc2ccc(C(C)(C)C)cc2)cnc1-c1ccccc1O [Cpd 160, 3-(4-tert-butyl-phenyl)-N-[6-(2-hydroxy-phenyl)-5-methyl-pyridin-3-yl]-propionamide] |
|  |  |  |  | 7.32 | Emax at 6 µM (human VR1 [1]): 45%; inhibition at 1 µM (human VR1 [1]; [4]): 96% | CC(C)(C)c1ccc(CCC(=O)Nc2cc(F)c(-c3ccncc3)c(F)c2)cc1 [Cpd 169] |
|  |  |  |  | 6.53 | Emax at 6 µM (human VR1 [1]): 119%; inhibition at 1 µM (human VR1 [1]; [4]): 60% | CC(C)(C)c1ccc(CCC(=O)Nc2ccc(-c3ccncc3)c(CO)c2)cc1 [Cpd 171] |
